In patent US8034353B2, “Peptide vaccine for inducing the production of anti-amyloid β-peptide antibody” (priority 2006, dated 2011):
Where two headings read alike, the source gives them in different places.

Key:
Aβ (SEQ ID NO:2) = assay: Anti-Aβ antibody titer in serum of transnasally vaccinated mice, ELISA (Experiment 1); format: in vivo, BALB/c female mice; conditions: BALB/c mice, transnasal 50 μg/mouse/once, four times at two weeks interval, serum one week after last administration
Description: The results are in Table 1.

T-cell [1] = format: cell-based, mice
T-cell [2] = format: cell-based, human

Substance	Antibody titer Anti-Aβ antibody (Aβ (SEQ ID NO:2))	Induction of blastogenesis of the T-cell (T-cell [1])	Induction of blastogenesis of the T-cell (T-cell [2])
RGD-Gag-KK-Aβ(1-13): RGD motif, Gag T-cell epitope (HIV-1 Gag 298-312), KK linker, Aβ(1-13) B-cell epitope (RGDKRWIILGLNKIVRMYKKDAEFRHDSGYEVH; peptide for the production of anti-amyloid beta antibody)	32		
AYNFVESIINLFQVVHNSYN (diphtheria toxoid (partial sequence)) [DTL]		inducing the blastogenesis of the T-cell	inducing the blastogenesis of the T-cell
QYIVNEDKFQILYNSIMYGF (tetanus toxoid (partial sequence)) [TetT3L]		inducing the blastogenesis of the T-cell	inducing the blastogenesis of the T-cell
RGD-Gag-KK-Aβ(1-11): RGD motif, Gag T-cell epitope (HIV-1 Gag 298-312), KK linker, Aβ(1-11) B-cell epitope (RGDKRWIILGLNKIVRMYKKDAEFRHDSGYE; peptide for the production of anti-amyloid beta antibody)	14.9		
RGD-Gag-KK-Aβ(3-11): RGD motif, Gag T-cell epitope (HIV-1 Gag 298-312), KK linker, Aβ(3-11) B-cell epitope (RGDKRWIILGLNKIVRMYKKEFRHDSGYE; peptide for the production of anti-amyloid beta antibody)	22.6		
